From article PMC8583417, “Evaluation of the Antimicrobial Efficacy of N-Acetyl-L-Cysteine, Rhamnolipids, and Usnic Acid—Novel Approaches to Fight Food-Borne Pathogens” (International Journal of Molecular Sciences, 2021)

Columns and labels:
S. aureus 816 [1] = experiment: MIC for reduction of preformed biofilm (crystal violet staining); assay type: cell-based, Staphylococcus aureus; details: for MICBR80: ≥80% reduction of preformed biofilm (18 h), 20 h with substance
Method: (§1) Ten concentrations of NAC, RLs, and UA were tested to determine the minimum inhibitory concentration for planktonic growth, and subsequently, the six highest concentrations were applied on preformed biofilms to evaluate the biofilm eradication ability of the compounds. MIC was defined as the lowest substance concentration able to inhibit at least 80% of microbial growth (MICPC80 for planktonic cells, MICBC80 for further growth of biofilm cells), inhibit 80% of metabolic activity (MICBM80 for biofilm metabolic activity, MICMPB80 for metabolic activity of preformed biofilm), prevent biofilm formation by at least 80% (MICBF80 for biofilm formation), or reduce a preformed biofilm by at least 80% (MICBR80 for biofilm reduction). The results of MICs are summarized in Table 1 (planktonic cells) and Table 2 (biofilm-associated cells).
(§2) The determination of MICs was performed according to Chlumsky et al.. Briefly, 96-well flat-bottomed microtiter plates were inoculated with 75 µL (for biofilm formation) or 100 µL (for preformed biofilm) of bacterial suspension (A625nm 0.08 to 0.1) in technical triplicates and were then carefully mixed with the dilution series of the test substances (24 h cultivation at 25 °C for S. Infantis, 37 °C for other strains) or were directly cultivated to preform biofilms (18 h). For a positive control of bacterial growth, the inoculum was mixed with a pure sterile medium. Furthermore, the sterile medium was included in the plate as a marker of potential microbial contamination. To evaluate planktonic cells growth (MICPC80) and further growth of biofilm cells (MICBC80), the optical density of the content of the microtiter plates was measured spectrophotometrically at 625 nm before and after 24 h (for biofilm formation) of cultivation or before and after additional 20 h incubation with the tested compound (for preformed biofilm). The difference of A625nm was considered as a measure of the ability of cells to grow in the presence of the tested substances. To evaluate the inhibition of biofilm formation (MICBF80) and reduction in preformed biofilms (MICBR80), biomass was quantified using crystal violet staining, and its metabolic activity (MICBM80 and MICMPB80) was estimated by using the MTT (thiazyl tetrazolium bromide, Sigma-Aldrich, USA) reduction assay, both measured spectrophotometrically at 595 nm.
(§3) All inhibitions were calculated using the formula of Chlumsky et al. below (Equation (1)):(1) A625(595)nm inhibition (%)=A625(595)nm (control) – A625(595)nm(natural substance)/A625(595)nm (control)× 100 where A625(595)nm (control) is the absorbance of bacterial suspension/biofilm itself, and A625(595)nm(natural substance) is the absorbance of the bacterial suspension/biofilm with the added natural substance (NAC, RLs, and UA).
(§4) When the minimum inhibitory concentration could not be determined, the MIC was established as >the highest tested concentration for NAC, RLs, and UA.

E. coli 683/17 = experiment: MIC for further growth of biofilm cells, preformed biofilm (A625nm); assay type: cell-based, Escherichia coli; details: for MICBC80: ≥80% inhibition, 18 h preformed biofilm, 20 h with substance
Method: as §1, §2, §3, §4

E. coli 693/17 = experiment: as above; assay type: cell-based, Escherichia coli; details: for MICBC80: ≥80% inhibition, 18 h preformed biofilm, 20 h with substance
Method: as §1, §2, §3, §4

L. monocytogenes 164 = experiment: as above; assay type: cell-based, Listeria monocytogenes; details: ≥80% inhibition, 18 h preformed biofilm, 20 h with substance
Method: as §1
as §2, with “Furthermore, the sterile medium was included in the plate as a marker of potential microbial contamination.” left out, “The difference of A625nm was considered as a measure of the ability of cells to grow in the presence of the tested substances.” left out
as §3, §4

L. monocytogenes 149 = experiment: as above; assay type: cell-based, Listeria monocytogenes; details: ≥80% inhibition, 18 h preformed biofilm, 20 h with substance
Method: as §1
as §2, with “Furthermore, the sterile medium was included in the plate as a marker of potential microbial contamination.” left out, “The difference of A625nm was considered as a measure of the ability of cells to grow in the presence of the tested substances.” left out
as §3, §4

S. aureus 1241 = experiment: CLSM analysis, biofilm removal (preformed biofilm); assay type: cell-based, Staphylococcus aureus; details: 20 h exposure, mean ± SD; for Thickness (µm) MICBM80: substance at its MIC; for Thickness (µm) subCBM80: substance at subinhibitory concentration
Method: (§5) Biofilm prevention and removal analyses were performed using previously determined minimum inhibitory and subinhibitory concentrations for metabolic activity (MICBM80, subCBM80; MICMPB80, subCMPB80) of NAC, RLs, and UA specific for each tested strain. Selected concentrations were used to evaluate the inhibition of biofilm formation (biofilm prevention) and the reduction in previously formed biofilms (biofilm removal) for the same set of microorganisms, with the exception of S. Infantis, which was excluded from the analysis due to its inability to form biofilm in the selected microtiter plate. Biofilm prevention and removal were observed using CLSM with specific staining to distinguish between live and membrane-compromised cells. Images were analyzed to evaluate (i). the total volume of the biomass, (ii). ratios of live and membrane-compromised cells, and (iii). to calculate biofilm volume reduction for individual organisms after the respective treatment types. The total biofilm volume was normalized by the area of the well and expressed as an average biofilm thickness. Complete data are provided in Supplementary Materials (Tables S1–S8).
(§6) At first, bacterial suspensions were cultivated in microtiter plates to produce overnight biofilms (18 h). […] cells were then washed out, and the remaining biofilms were further cultivated for an additional 20 h with selected compounds. Following biofilm cultivation, biomass was observed using CLSM with live/membrane-compromised cell staining. Biomass images from biofilm removal treatments were similar to results from biofilm prevention, where biomass was highly diversified across the bacterial species and strains. Visually, biomass images were fairly consistent within the quadruplicates for each tested organism. Non-treated biofilms of S. aureus contained consistent biomass spread across the well (S. aureus 816) or grown around the edges (S. aureus 1241). […] PI staining identified membrane-compromised cells spread across S. aureus 816 biomass and incorporated in the edge of biomass and/or in the central part of the well (Figure 4B,C). […] Membrane-compromised cells appeared contained around the edges (S. aureus 1241), disturbed across the well (in both strains of L. monocytogenes), or in separated biomass in the central part of the well (in both strains of E. coli when treated with the subinhibitory concentration of RLs) (Figure 4D,E).
(§7) For both inhibition and reduction of biofilms, overnight cultures from BHI were diluted in TSB + 1% Glc to reach an absorbance of 0.08 to 0.1 at 625 nm. The inoculum (150 µL) was transferred into wells of the 96-well flat-bottomed Ibidiμ-Plate (Ibidi, Gräfelfing, Germany) and mixed with 150 µL of each of the three tested substances in technical quadruplicates, followed by incubation at 37 °C for 24 h. Simultaneously, the prepared bacterial suspensions were inoculated to an additional microtiter plate (200 µL) and allowed to form biofilm overnight (18 h at 37 °C). After the incubation, the content of the well was drained off, and 200 µL of each of the three tested substances was added to the plate, which was then incubated for an additional 20 h. The used concentrations of the substances represented the subinhibitory and minimum inhibitory concentrations for metabolic activity (subCBM80, MICBM80; subCMPB80, MICMPB80). Both setups contained a positive control of the bacterial growth (inoculum mixed with sterile TSB + 1% Glc medium) and a control monitoring microbial contamination (sterile medium). Non-treated wells were used as a positive control for comparison between non-treated and treated biofilm mass.
(§8) Prior to the imaging, the wells were stained with the LIVE/DEAD® BacLight™ Bacterial Viability Kit (Thermo Fisher Scientific, MA, USA) following the manufacturer’s guidelines and Drago et al.. […]

S. aureus 816 [2] = experiment: CLSM analysis, biofilm removal (preformed biofilm); assay type: cell-based, Staphylococcus aureus; details: for proportion of membrane-compromised cells: 20 h; for Thickness (µm) subCBM80: substance at subinhibitory concentration
Method: as §5, §6, §7, §8

[3] = preformed biofilm, 20 h exposure, mean ± SD

| Compound | MICBR80 (S. aureus 816 [1]) | MICBC80 (E. coli 683/17) | MICBC80 (E. coli 693/17) | MICBC80 (L. monocytogenes 164) | MICBC80 (L. monocytogenes 149) | Thickness (µm) MICBM80 (S. aureus 1241) | Thickness (µm) subCBM80 (S. aureus 1241) | proportion of membrane-compromised cells (S. aureus 816 [2]; MIC) | Thickness (µm) MICBM80 (S. aureus 816 [2]; preformed biofilm, 20 h exposure, substance at its MIC, mean ± SD) | Thickness (µm) subCBM80 (S. aureus 816 [2]; [3]) | maximal achieved inhibition (MICBR80 not reached), biofilm reduction (S. aureus 816 [1]; preformed biofilm, within tested concentrations) | maximal achieved inhibition (MICBC80 not reached) (E. coli 683/17; within tested concentrations) | maximal achieved inhibition (MICBC80 not reached) (E. coli 693/17; within tested concentrations) | proportion of membrane-compromised cells (S. aureus 816 [2]; subinhibitory concentration) |
| --- | --- | --- | --- | --- | --- | --- | --- | --- | --- | --- | --- | --- | --- | --- |
| CC(=O)N[C@@H](CS)C(=O)O [NAC, N-Acetyl-L-cysteine] | 12,500 µg/mL | 6250 µg/mL | 3130 µg/mL | 3130 µg/mL | 3130 µg/mL | 253 ± 44.4 µm | 266 ± 37.9 µm | up to 20% | 156 ± 80.4 µm | 247 ± 64.7 µm | – | – | – | – |
| CC(=O)c1c(O)c(C)c(O)c2c1OC1=CC(=O)C(C(C)=O)C(=O)C12C (single isomer, unassigned; (+)) [UA, (+)-usnic acid] | > 31.3 µg/mL | > 31.3 µg/mL | > 31.3 µg/mL | 1.96 µg/mL | 1.96 µg/mL | 210 ± 32.5 µm | 251 ± 15.7 µm | – | – | 152 ± 68.6 µm | 35% | 44% | 61% | up to 40% |
